Measured values from US12390473B2, “Methods of treating tyrosine kinase inhibitor-induced diarrhea” (THE REGENTS OF THE UNIVERSITY OF CALIFORNIA, priority 2019, dated 2025).

Columns and labels:
[1] = system: T84 human colonic epithelial cells; experiment: Short-circuit current in T84 cell monolayers, identical apical and basolateral solutions; assay type: cell-based; conditions: for effect on residual afatinib-induced carbachol response in BAPTA-treated cells: 10 μM inhibitor; for effect on residual afatinib-induced carbachol response in BAPTA-treated cells / short-circuit current, TKI alone: 20 μM afatinib; for effect on carbachol and forskolin induced current responses, without and with afatinib pretreatment: 30 μM clotrimazole, 10 μM senicapoc, 30 min prior to 100 μM carbachol then 10 μM forskolin; for effect of higher concentrations on the small residual current: data not shown; for short-circuit current, TKI alone: 40 μM lapatinib, 20 μM gefitinib, before carbachol
Description: T84 cells (ATCC CCL-248) are cultured in a 1:1 mixture of DMEM/Ham's F-12 medium supplemented with 10% FBS, 100 U/mL penicillin and 100 μg/mL streptomycin. Cells are grown on Snapwell inserts (Costar Corning, Horseheads, NY) at 37° C. in 5% CO2/95% air and used 7-10 days after plating.
T84 cells are mounted in Ussing chambers and bathed in symmetrical HCO3-buffered solution containing (in mM): 120 NaCl, 5 KCl, 1 MgCl2, 1 CaCl2, 10 D-glucose, 5 HEPES and 25 NaHCO3 (pH 7.4). The solutions are aerated with 95% O2/5% CO2 and maintained at 37° C. For measurement of basolateral K^+ conductance, a mucosal-to-serosal K^+ gradient is established using solutions containing K^+ as the major charge-carrying ion. The apical solution contained (in mM): 142.5 K-gluconate, 1.25 CaCl2, 0.40 MgSO4, 0.43 KH2PO4, 0.35 Na2HPO4, 10 HEPES, 5.6 D-glucose, pH 7.4. […] For measurement of apical Cl^− conductance, a basolateral to apical Cl^− gradient is applied. The basolateral solution contained (in mM): 120 NaCl, 1 MgCl2, 1 CaCl2, 10 D-glucose, 5 HEPES and 25 NaHCO3 (pH 7.4). In the apical solution 120 mM NaCl is replaced by 5 mM NaCl and 115 mM Na-gluconate, and the basolateral membrane is permeabilized with 250 μg/ml amphotericin B (Pongkorpsakol P, Pathomthongtaweechai N, Srimanote P, Soodvilai S, Chatsudthipong V, and Muanprasat C. Inhibition of cAMP-activated intestinal chloride secretion by diclofenac: cellular mechanism and potential application in cholera. PLoS Negl Trop Dis. 2014; 8(9):e3119). Short-circuit current is measured using an EVC4000 multichannel voltage clamp (World Precision Instruments, Sarasota, FL). For intestinal short-circuit current measurement, CD1 mice are anesthetized with isoflurane. The ileum is removed, washed with ice-cold Krebs buffer, opened along the mesenteric border, and full-thickness layer is mounted in a micro-Ussing chamber (area 0.7 cm2, World Precision Instruments, Sarasota, FL). Hemichambers are filled with oxygenated Krebs-bicarbonate solution.
The effect of ErbB TKIs lapatinib, gefitinib, and afatinib on Cl^− secretory responses in T84 human colonic epithelial cells is tested. Short-circuit current is measured in T84 cell monolayers with identical solutions bathing the apical and basolateral surfaces.

[2] = molecular target: T1, apical membrane CFTR Cl- channels (Homo sapiens, UniProt P13569); experiment: Apical Cl- conductance: short-circuit current in basolaterally permeabilized T84 cells with Cl- gradient; assay type: cell-based; conditions: basolateral membrane permeabilized, 10 μM BPO-27
T1 construct: endogenous in cells; host or cells: T84 (ATCC CCL-248)

Sprague-Dawley rats = experiment: Rat model of afatinib diarrhea (stool water content, intestinal histology); assay type: in vivo; conditions: for inhibition of the increase in stool water content: days 3 and 4; for reduction of the increased stool water content with afatinib: senicapoc 30 mg/kg oral twice daily
Description: Female Sprague-Dawley rats (age 8-10 weeks) received oral afatinib (60 mg/kg oral) daily for 6 days. […] Rats are placed individually in metabolic cages and given access to water and food. Stool samples are collected for 5 hours. To measure stool water content, the stool samples are dried at 70° C. for 24 hours and water content is calculated as (wet weight−dry weight)/wet weight. Following initial dose-finding studies in mice and rats with several TKIs, using stool water content (from wet and dry weight measurement) as endpoint, a robust, short-term experimental animal model of afatinib diarrhea is established involving daily oral administration of 60 mg/kg afatinib in rats.

[3] = system: basolateral membrane K+ channel(s); experiment: Basolateral K+ conductance: short-circuit current in apically permeabilized T84 cells with K+ gradient; assay type: cell-based, human; conditions: apical membrane permeabilized
Description: (§1) T84 cells are mounted in Ussing chambers and bathed in symmetrical HCO3-buffered solution containing (in mM): 120 NaCl, 5 KCl, 1 MgCl2, 1 CaCl2, 10 D-glucose, 5 HEPES and 25 NaHCO3 (pH 7.4). The solutions are aerated with 95% O2/5% CO2 and maintained at 37° C. For measurement of basolateral K^+ conductance, a mucosal-to-serosal K^+ gradient is established using solutions containing K^+ as the major charge-carrying ion. The apical solution contained (in mM): 142.5 K-gluconate, 1.25 CaCl2, 0.40 MgSO4, 0.43 KH2PO4, 0.35 Na2HPO4, 10 HEPES, 5.6 D-glucose, pH 7.4. […] Short-circuit current is measured using an EVC4000 multichannel voltage clamp (World Precision Instruments, Sarasota, FL).
To measure basolateral membrane K^+ conductance directly, short-circuit current is measured in T84 cells following permeabilization of the apical membrane with amphotericin B in Cl^− and Na^+ free solutions and an apical-to-basolateral K^+ gradient (FIG. 7A).

[4] = molecular target: epithelial Ca2+-activated K+ channels (Homo sapiens, UniProt O15554); conditions: reported; cited from earlier work
[5] = system: cAMP-activated K+ channels; experiment: Inhibition of forskolin-induced short-circuit current in T84 cells (FIG. 11B); assay type: cell-based, human; conditions: 10 μM forskolin
Description: as §1

[6] = 30 μM BAPTA-AM, 100 μM carbachol
[7] = afatinib-treated rats, BPO-27 10 mg/kg ip twice daily, clotrimazole 100 mg/kg oral in two divided doses

T1 sequence (P13569 whole entry): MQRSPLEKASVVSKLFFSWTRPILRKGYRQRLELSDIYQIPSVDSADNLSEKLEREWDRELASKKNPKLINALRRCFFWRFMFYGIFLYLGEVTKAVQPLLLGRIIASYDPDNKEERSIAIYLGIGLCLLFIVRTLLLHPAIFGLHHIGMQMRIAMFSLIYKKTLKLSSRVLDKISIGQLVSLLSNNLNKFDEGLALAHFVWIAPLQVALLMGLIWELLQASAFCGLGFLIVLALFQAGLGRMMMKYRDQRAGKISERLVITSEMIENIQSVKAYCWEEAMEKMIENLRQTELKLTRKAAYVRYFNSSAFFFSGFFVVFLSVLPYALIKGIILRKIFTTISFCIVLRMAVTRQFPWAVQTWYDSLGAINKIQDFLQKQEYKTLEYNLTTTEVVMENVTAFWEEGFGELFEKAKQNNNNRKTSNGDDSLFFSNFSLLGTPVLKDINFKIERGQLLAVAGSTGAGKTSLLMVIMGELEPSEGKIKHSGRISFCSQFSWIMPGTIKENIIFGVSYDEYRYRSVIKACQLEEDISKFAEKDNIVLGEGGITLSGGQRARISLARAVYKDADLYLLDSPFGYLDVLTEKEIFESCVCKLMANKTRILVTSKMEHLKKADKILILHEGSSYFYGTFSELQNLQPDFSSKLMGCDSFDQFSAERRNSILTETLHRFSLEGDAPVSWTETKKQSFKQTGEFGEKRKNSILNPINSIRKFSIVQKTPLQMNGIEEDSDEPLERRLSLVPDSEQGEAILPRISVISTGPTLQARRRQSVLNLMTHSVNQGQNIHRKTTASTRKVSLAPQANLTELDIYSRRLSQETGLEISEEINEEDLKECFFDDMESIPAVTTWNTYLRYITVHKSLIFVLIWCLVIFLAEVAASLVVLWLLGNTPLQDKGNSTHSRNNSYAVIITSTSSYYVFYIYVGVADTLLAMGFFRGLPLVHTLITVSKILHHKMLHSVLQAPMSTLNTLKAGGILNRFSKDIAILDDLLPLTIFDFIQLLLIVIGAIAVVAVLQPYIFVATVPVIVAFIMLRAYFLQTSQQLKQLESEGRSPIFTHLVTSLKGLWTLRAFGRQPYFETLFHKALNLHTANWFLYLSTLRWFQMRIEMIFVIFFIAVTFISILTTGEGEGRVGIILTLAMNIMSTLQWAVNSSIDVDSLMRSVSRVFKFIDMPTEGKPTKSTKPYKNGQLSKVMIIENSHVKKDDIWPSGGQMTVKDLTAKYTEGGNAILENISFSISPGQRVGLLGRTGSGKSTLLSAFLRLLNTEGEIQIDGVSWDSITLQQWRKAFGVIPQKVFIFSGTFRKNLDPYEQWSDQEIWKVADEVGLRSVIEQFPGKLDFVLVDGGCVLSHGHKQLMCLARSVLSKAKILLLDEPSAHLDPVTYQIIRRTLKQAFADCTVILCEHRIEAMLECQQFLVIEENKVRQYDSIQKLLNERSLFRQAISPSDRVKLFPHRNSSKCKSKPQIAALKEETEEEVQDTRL
Sequence of epithelial Ca2+-activated K+ channels (O15554 whole entry): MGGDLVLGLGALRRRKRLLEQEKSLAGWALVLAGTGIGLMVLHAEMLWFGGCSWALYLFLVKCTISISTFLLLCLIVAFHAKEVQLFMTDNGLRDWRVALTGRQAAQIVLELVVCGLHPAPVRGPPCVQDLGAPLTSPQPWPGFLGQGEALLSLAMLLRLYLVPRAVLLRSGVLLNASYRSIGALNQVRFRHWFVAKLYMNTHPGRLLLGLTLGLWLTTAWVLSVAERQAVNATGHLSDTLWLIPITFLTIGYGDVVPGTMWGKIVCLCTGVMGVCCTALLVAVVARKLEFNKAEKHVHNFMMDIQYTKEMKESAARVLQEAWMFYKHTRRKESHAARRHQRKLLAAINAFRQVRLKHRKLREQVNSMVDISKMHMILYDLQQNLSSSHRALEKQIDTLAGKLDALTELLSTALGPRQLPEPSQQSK

With CC(=O)OCOC(=O)CN(CC(=O)OCOC(C)=O)c1ccccc1OCCOc1ccccc1N(CC(=O)OCOC(C)=O)CC(=O)OCOC(C)=O [BAPTA-AM] the “effect on carbachol response” value [1, 6] was “largely prevents the carbachol response”.
In the case of Cn1c(=O)c2c(-c3ccccc3)n3c(c2n(C)c1=O)[C@H](c1ccc(Br)o1)Oc1ccc(C(=O)O)cc1-3 [BPO-27], the “effect on afatinib augmentation of carbachol-induced current” value ([1]; 10 μM BPO-27, 20 μM afatinib, 100 μM carbachol) is reported as “blocks the afatinib augmentation”, the “effect on carbachol-induced current without afatinib” value ([1]; 10 μM BPO-27, 100 μM carbachol) is reported as “little effect” and the “effect on residual afatinib-induced carbachol response in BAPTA-treated cells” value [1, 6] is reported as “blocked”. For the same compound, the “effect on afatinib-amplified carbachol response (apical Cl- conductance)” value [2] was “blocked”, the “inhibition of the increase in stool water content” value (Sprague-Dawley rats; afatinib-treated rats, BPO-27 10 mg/kg ip twice daily from 1 day after first afatinib dose) was ~50% and the “reduction of the increased stool water content with afatinib” value (Sprague-Dawley rats; [7]) was “significant reduction”. The “inhibitor effect on stool water content by day 5” value (Sprague-Dawley rats; afatinib-treated rats, BPO-27 10 mg/kg ip twice daily, day 5) was “reduced inhibitor effect”.
With O=C(O)c1ccc(/C=C2\SC(=S)N(c3cccc(C(F)(F)F)c3)C2=O)cc1 [CFTRinh-172] the “effect on residual afatinib-induced carbachol response in BAPTA-treated cells” value [1, 6] was “blocked”.
For CCn1c(=O)[nH]c2ccccc21 [EBIO], the “effect of pretreatment on carbachol and forskolin current responses” value ([1]; EBIO 500 μM and/or afatinib 20 μM, 25 min prior to 100 μM carbachol then 10 μM forskolin) was “amplifies the carbachol and forskolin current responses”.
With CN(C)C/C=C/C(=O)Nc1cc2c(Nc3ccc(F)c(Cl)c3)ncnc2cc1O[C@H]1CCOC1 [afatinib] the EC50 ([1]; Homo sapiens, added 25 min prior to carbachol, read-out: EC50 of amplification of carbachol-induced short-circuit current) was ~5 µM, the “increase in carbachol response (basolateral K+ conductance) after pretreatment” value ([3]; 20 μM afatinib, 100 μM carbachol) was ~2 fold and the intestinal histology (Sprague-Dawley rats; rats, 60 mg/kg afatinib oral daily) was “relatively minor pathology up to day 4, but greater epithelial disruption after that”. The stool water content (Sprague-Dawley rats; rats, 60 mg/kg afatinib oral daily, days 4-5, baseline ~60%) was > 80%, the “intestinal histology (H&E) by day 6” value (Sprague-Dawley rats; rats, 60 mg/kg afatinib oral, day 6) was “scattered epithelial disruption is seen in jejunum (black arrowheads) and villus atrophy in ileum” and the “intestinal histology (H&E) up to day 4” value (Sprague-Dawley rats; rats, 60 mg/kg afatinib oral, up to day 4) was “minor injury up to day 4 with villus blunting in ileum”.
For Clc1ccccc1C(c1ccccc1)(c1ccccc1)n1ccnc1 [clotrimazole], the “inhibition of epithelial Ca2+-activated K+ channels in patch-clamp studies” value [4] is given as “fully inhibit”, the “effect on carbachol and forskolin induced current responses, without and with afatinib pretreatment” value [1] is given as “largely prevents” and the “effect of higher concentrations on the small residual current” value [1] is given as “does not inhibit the residual current”. The “effect on afatinib-amplified carbachol response (basolateral K+ conductance)” value ([3]; afatinib pretreatment, carbachol) was “largely blocked”, the “reduction of the increased stool water content with afatinib” value (Sprague-Dawley rats; [7]) was “significantly reduced” and the “inhibition of the increase in stool water content” value (Sprague-Dawley rats; afatinib-treated rats, clotrimazole 100 mg/kg oral in two divided doses) was ~75%.
For COc1cc2ncnc(Nc3ccc(F)c(Cl)c3)c2cc1OCCCN1CCOCC1 [gefitinib], the “short-circuit current, TKI alone” value [1] was “do not increase short-circuit current”.
In the case of CS(=O)(=O)CCNCc1ccc(-c2ccc3ncnc(Nc4ccc(OCc5cccc(F)c5)c(Cl)c4)c3c2)o1 [lapatinib], the “short-circuit current, TKI alone” value [1] is reported as “do not increase short-circuit current”.
In the case of NC(=O)C(c1ccccc1)(c1ccc(F)cc1)c1ccc(F)cc1 [senicapoc], the “effect on carbachol and forskolin induced current responses, without and with afatinib pretreatment” value [1] is reported as “largely prevents”, the “effect of higher concentrations on the small residual current” value [1] is reported as “does not inhibit the residual current” and the “IC50 for inhibition of cAMP-dependent basolateral K+ conductance” value [5] is reported as “low micromolar”. For the same compound, the “reduction of the increased stool water content with afatinib” value (Sprague-Dawley rats; [7]) was “Significant, though lesser reduction”.
In the case of “EGF: Epidermal growth factor (NSDSECPLSHDGYCLHDGVCMYIEALDKYACNCVVGYIGERCQYRDLKWWELR; UniProt P01133 971-1023, looked up)”, the “effect on Cl- secretion in response to carbachol” value ([1]; 100 ng/ml EGF 25 min prior to 100 μM carbachol) is reported as “greatly reduces”.
